Legend:
[1] = tested on: non-transgenic soybean line A4922; experiment: Field trial of seed coatings under soil compaction / different soils, wild-type soybean; assay type: in vivo, Glycine max; details: for Count (emergence) / Height (total plant height): A4922
Description: The second trial (data reported in Tables 22-24) tested the precursors under conditions of soil compaction.
As noted above, the second trial tested the noted precursors under conditions of soil compaction. These experiments are performed in the same manner as in the first trial, except that the soil is compacted with an all-terrain vehicle.
“Height” equals total plant height in cm.

[2] = tested on: wild-type soybean line A4922; experiment: Field trial of seed coating application rates, wild-type soybean
Description: GA3, GA3-3-acetate, GA5, GA9, and GA12 are evaluated in further field trials. […] The objectives of these tests are: 1) to determine if seed coatings, as compared to imbibition, of GA compounds facilitate rescue of constitutively GA-deficient transgenic dwarf soybeans (transgenic lines 719−2 plus 719+17) without causing elongation of wild-type soybeans (line A4922), and 2) to determine the seed treatment rate ranges for each of the selected GA compounds that would provide rescue of constitutively GA-deficient transgenic dwarf soybeans (transgenic lines 719−2 plus 719+17) without causing elongation of wild-type soybeans (line A4922).
Seeds are treated with GA3, GA5, GA9, GA12, and GA3-3-acetate at rates of 0, 0.1, 1, 10, and 100 μg/seed. These GA compounds are applied to the seeds using a Hege 11 seed treater (Hans-Ulrich Hege GmbH & Co., Waldenburg, Germany); 100% acetone is used as the carrier solvent. The amount of liquid introduced into the seed treater is six fluid ounces/100 lbs seed rate. In addition, GA12 is tested at 50 μg/seed. The untreated control (UTC) consisted of dry, untreated seeds. Seeds of constitutively GA-deficient transgenic dwarf soybean line 719 and wild-type A4922 are sown in both light and heavy soil. The planting depth is 0.5 to 1 inch (1.27 to 2.54 cm); watering is via drip irrigation. The experiment is carried out in three repetitions, using 25 seeds/plot (one five foot (152.4 cm) long row) for line 719, and 75 seeds/plot (two eight foot (243.8 cm) rows) for line A4922. Observations included total emergence, number of dwarfs not rescued, uniformity in plant height, average plant height, visual notes, and digital photos.
In all the experiments reported in Tables 17-24, treatments are replicated three times in a randomized block design. Data are analyzed using LSD (least significant difference) 0.05 probability using the PRM 5.0 Statistical Analysis Program (SAS Institute, North Carolina).

[3] = tested on: transgenic line 719 soybean; experiment: Field trial of seed coatings under soil compaction / different soils, GA-deficient soybean; assay type: in vivo, Glycine max; details: for Count (emergence) / Dwarfs (number of dwarfs not rescued) / Dwarfs (number not rescued): Line 719
[4] = tested on: wild-type soybean line A3237; experiment: Experiment II second greenhouse test, seed imbibition, wild-type soybean; assay type: in vivo, Glycine max; details: 0.025 mg/ml; seeds imbibed 6 hours
Description: (The compounds are tested in Experiment I at only one concentration, i.e., 0.25 mg/ml). Test tubes contained […] of ethanol solution per tube. Final volumes are made up to 30 ml with deionized water. After shaking, the treatment solutions (15 ml each) are transferred to each of two 50 ml test tubes. […] Twenty seeds are used in each treatment. Dry seed, ethanol/water-imbibed seed (1% ethanol in water, v/v), and water-imbibed seeds are included as controls. Seeds are imbibed for 6 hours in the test solutions, then planted in bread pans containing Metromix 350 (The Scotts Company, Marysville, Ohio), and covered with 0.5″ Metro-mix. Covered pans are transferred to the greenhouse and subirrigated. Illumination is at a light intensity of 300-400 μmolm^−2s^−1 photosynthetic photon flux; 16 hours light/8 hours dark. Subsequent waterings are also through sub-irrigation until the test is terminated three weeks later. Observations included the number of dwarf, intermediate, and tall plants; plant height; uniformity of rescue; and any visual effects. Digital photographs are also taken.

[5] = Heavy soil - Loose, target rate 0.5 μg/seed, Table 23
[6] = Heavy soil - Loose, target rate 2.0 μg/seed, Table 23
[7] = Heavy soil - Loose, target rate 4.0 μg/seed, Table 23
[8] = Heavy soil - compacted, target rate 0.5 μg/seed, Table 23
[9] = Heavy soil - compacted, target rate 2.0 μg/seed, Table 23
[10] = Heavy soil - compacted, target rate 4.0 μg/seed, Table 23
[11] = Heavy soil - loose, target rate 0.5 μg/seed, Table 22
[12] = Heavy soil - loose, target rate 2.0 μg/seed, Table 22
[13] = Light soil - Compacted, target rate 0.5 μg/seed, Table 22
[14] = Light soil - Compacted, target rate 2.0 μg/seed, Table 22
[15] = Light soil - Loose, target rate 0.5 μg/seed, Table 24
[16] = Light soil - Loose, target rate 2.0 μg/seed, Table 24
[17] = Light soil - Loose, target rate 4.0 μg/seed, Table 24
[18] = Light soil - compacted, target rate 0.5 μg/seed, Table 24
[19] = Light soil - compacted, target rate 2.0 μg/seed, Table 24
[20] = Light soil - compacted, target rate 4.0 μg/seed, Table 24

## C=C1C[C@]23C[C@@]1(O)CC[C@H]2[C@@]12CC=C[C@@](C)(C(=O)O1)[C@H]2[C@@H]3C(=O)O [GA5]
[1]; [5]
  Count (emergence): 32.0 abc
  Height (total plant height): 5.3 g·cm·days
[1]; [6]
  Count (emergence): 24.7 de
  Height (total plant height): 6.7 bcd cm
[1]; [7]
  Count (emergence): 26.7 b-e
  Height (total plant height): 9.0 a cm
[1]; [8]
  Count (emergence): 13.7 abc
  Height (total plant height): 4.7 cde cm
[1]; [9]
  Count (emergence): 9.0 bcd
  Height (total plant height): 6.7 ab cm
[1]; [10]
  Count (emergence): 6.7 cde
  Height (total plant height): 6.7 ab cm
[1]; [11]
  Count (emergence): 32 abc
  Height (total plant height): 5.3 g·cm·days
[1]; [12]
  Count (emergence): 25 cde
  Height (total plant height): 6.7 bcd cm
[1]; [13]
  Count (emergence): 37 abc
  Height (total plant height): 6.7 cm·days
[1]; [14]
  Count (emergence): 22 de
  Height (total plant height): 9.0 c cm
[1]; [15]
  Count (emergence): 44.7 ab
  Height (total plant height): 6.0 fg·cm
[1]; [16]
  Count (emergence): 41.0 abc
  Height (total plant height): 10.0 bc cm
[1]; [17]
  Count (emergence): 43.3 abc
  Height (total plant height): 12.7 a cm
[1]; [18]
  Count (emergence): 36.7 abc
  Height (total plant height): 6.7 cm·days
[1]; [19]
  Count (emergence): 21.7 de
  Height (total plant height): 9.0 c cm
[1]; [20]
  Count (emergence): 18.7 def
  Height (total plant height): 11.7 a cm
[1]; ten days after planting, compacted soil
  plant height dose/response in wild-type line A4922 (FIG. 40): dose/response curves similar to that of GA3
[2]; 0.1 μg compound per seed
  A4922 Height, cm, Heavy soil: 4.3 ghi cm
  A4922 Height, cm, Light soil: 6.0 fgh cm
  No. A4922 Emerged, Heavy soil: 32.3 b-g
  No. A4922 Emerged, Light soil: 51.7 bcd
[2]; 1 μg compound per seed
  A4922 Height, cm, Heavy soil: 7.0 ef cm
  A4922 Height, cm, Light soil: 7.3 fg·cm
  No. A4922 Emerged, Heavy soil: 37.3 b-f
  No. A4922 Emerged, Light soil: 47.3 c-g
[2]; 10 μg compound per seed
  A4922 Height, cm, Heavy soil: 17.3 b cm
  A4922 Height, cm, Light soil: 16.3 c cm
  No. A4922 Emerged, Heavy soil: 32.7 b-g
  No. A4922 Emerged, Light soil: 45.7 c-h
[2]; 100 μg compound per seed
  A4922 Height, cm, Heavy soil: 22.3 a cm
  A4922 Height, cm, Light soil: 29.7 a cm
  No. A4922 Emerged, Heavy soil: 38.3 b-e
  No. A4922 Emerged, Light soil: 46.7 c-g
[3]; [5]
  Count (emergence): 31.7 bcd
  Dwarfs (number of dwarfs not rescued): 2.0 cde
[3]; [6]
  Count (emergence): 32.3 bcd
  Dwarfs (number of dwarfs not rescued): 0.7 cde
[3]; [7]
  Count (emergence): 30.3 bcd
  Dwarfs (number of dwarfs not rescued): 0 e
[3]; [8]
  Count (emergence): 18.3 ab
  Dwarfs (number of dwarfs not rescued): 0 days
[3]; [9]
  Count (emergence): 9.0 g·days
  Dwarfs (number of dwarfs not rescued): 0 days
[3]; [10]
  Count (emergence): 7.0 efg
  Dwarfs (number of dwarfs not rescued): 0 days
[3]; [11]
  Count (emergence): 32 bcd
  Dwarfs (number of dwarfs not rescued): 2.0 cde
[3]; [12]
  Count (emergence): 32 bcd
  Dwarfs (number of dwarfs not rescued): 0.7 cde
[3]; [13]
  Count (emergence): 39 abc
  Dwarfs (number of dwarfs not rescued): 0 days
[3]; [14]
  Count (emergence): 30 a-f
  Dwarfs (number of dwarfs not rescued): 0 days
[3]; [15]
  Count (emergence): 46.3 a
  Dwarfs (number not rescued): 1.0 e
[3]; [16]
  Count (emergence): 43.3 ab
  Dwarfs (number not rescued): 0 e
[3]; [17]
  Count (emergence): 45.0 ab
  Dwarfs (number not rescued): 0 e
[3]; [18]
  Count (emergence): 39.0 abc
  Dwarfs (number not rescued): 0
[3]; [19]
  Count (emergence): 30.3 a-f
  Dwarfs (number not rescued): 0
[3]; [20]
  Count (emergence): 32.7 a-e
  Dwarfs (number not rescued): 0
[3]; based on the last two field trials
  rank of potential for rescuing GA-deficient dwarf soybeans without decreasing emergence: GA9>GA5>GA3-3-acetate>GA3>GA12
[3]; emergence under soil compaction, margin of selectivity, rescue without overelongation, Table 22
  best to least selectivity order: GA9>GA5>GA3-3-acetate>GA3
[4]
  Significant Visual Observations on Line A3237: Normal height

— patent US6723897B2, “Methods for controlling gibberellin levels” (Monsanto Technology, LLC, priority 1998, dated 2004)
